Assays:
L1210 tumor cells = assay: Antitumor efficacy in L1210 tumor-bearing CDF1 mice (increase in life span); type: in vivo; settings: for Survived Animals on Day 42: 6 per group; for Weight Changes: from the first day to the seventh day
Description: In the following test, antitumor efficacy studies were performed using 8-9 weeks old female CDF1 mice, the average weight of the animal is 20-25 grams. L1210 tumor cells (about 10^5 cells per mouse) were inoculated intraperitoneally. The water-soluble platinum complexes were used to treat the tumor-bearing animals and the efficacy was compared compared with the clinical platinum antitumor drugs. […] Drugs were administered intraperitoneally on day 1 and day 4 after tumor cell transplantation. The number of experimental animals in each group was 6.
The experimental animals were purchased from Vital River Laboratory Animal Technology Co. Ltd., Tumor cells L1210-leukemia cells were purchased from Shanghai An Yan Commercial Trade Co. Ltd.
The increase in life span (ILS) is calculated as follows:
Wherein, St=the weighted median survival time of treated animals; Su=the weighted median survival time of untreated animals

[1] = cited from earlier work
[2] = test system: A549-human non-small cell lung cancer (adenocarcinoma); assay: MTS cytotoxicity assay (IC50); type: cell-based; settings: A549, 96 h, read-out: IC50 value in human tumor cells A549
Description: (§1) Containing 10% bovine fetal serum, 1 mM of sodium pyruvate, 2 mM of L-glutamine, 50 U/mL of penicillin, 50 μg/mL of streptomycin
(§2) Human tumor cells: du145-human prostate cancer; MCF-7-human breast cancer; SK0V3-human ovarian carcinoma, HT-29-human colon cancer; A549-human non-small cell lung cancer (adenocarcinoma), H460-human non-small cell lung cancer (large cell carcinoma), and animal tumor cells: L 1210-mice leukemia cells used in the following activity test experiments were all purchased from Shanghai An Yan Commercial Trade Co., Ltd.
(§3) MTS test method was used in cytotoxicity assay. The tumor cells of logarithmic phase were collected, and then the concentration of cell suspension was adjusted, 100 μL of the cell suspension was added to each well, the cells were placed at 1000-10000 cells/well (edge well filled with sterile PBS). Cells were incubated at 37° C. with 5% CO2 to make cell monolayer overspread the bottom of each well (96-well flat-bottomed microplate). 100 μL of different concentrations of the test compounds was added to each well. Each condition was measured in five replicates. The microplate was incubated at 37° C. with 5% CO2 for 96 h and checked with inverted microscope. MTS working reagent: To 2 mL of MTS (2 mg/mL, prepared by DPBS) was added 100 μL of PMS (1 mg/mL, prepared by DPBS). The cell culture medium was discarded after centrifugation, the cell culture plate was carefully washed 2-3 times with PBS. Before detecting the absorbance value (OD), to each sample containing well was added 100 μL of cell culture medium, then 20 μL of MTS working reagent was added. After incubation at 37° C. with 5% CO2 for 2 h, the OD (optical density) value was detected at 490 nm.
(§4) Control group: the conditions are the same as the above without adding the active ingredient of antitumor agents, and the OD value was detected at 490 nm on the end of the experiment.
(§5) The cell inhibiting rate of the drugs to tumor cell growth was calculated according to the following formula:
(§6) 1) Cell viability (%)=OD of treated group/OD of control group×100%
(§7) 2) The cell viabilities under the different drug concentrations were determined, and then plotted against drug concentration. The IC50 value is the corresponding concentration in the obtained curve when the cell viability was 50%.

[3] = test system: H460-human non-small cell lung cancer (large cell carcinoma); assay: MTS cytotoxicity assay (IC50); type: cell-based; settings: H460, 96 h, read-out: IC50 value in human tumor cells H460
Description: as §1, §2, §3, §4, §5, §6, §7

HT-29-human colon cancer = assay: MTS cytotoxicity assay (IC50); type: cell-based; settings: HT29, 96 h, read-out: IC50 value in human tumor cells HT29
Description: as §1, §2, §3, §4, §5, §6, §7

[4] = test system: MCF-7-human breast cancer; assay: MTS cytotoxicity assay (IC50); type: cell-based; settings: MCF7, 96 h, read-out: IC50 value in human tumor cells MCF7
Description: as §1, §2, §3, §4, §5, §6, §7

[5] = test system: SKOV3-human ovarian carcinoma; assay: MTS cytotoxicity assay (IC50); type: cell-based; settings: SKOV3, 96 h, read-out: IC50 value in human tumor cells SKOV3
Description: as §1, §2, §3, §4, §5, §6, §7

[6] = test system: du145-human prostate cancer; assay: MTS cytotoxicity assay (IC50); type: cell-based; settings: DU145, 96 h, read-out: IC50 value in human tumor cells DU145
Description: as §1, §2, §3, §4, §5, §6, §7

[7] = 1.25 mg/Kg i.p. day 1 and day 4

Compound: N.N.O=C([O-])C1(C(=O)[O-])CCC1.[Pt+2] [Carboplatin]
- ILS (L1210 tumor cells; 24 mg/Kg i.p. day 1 and day 4): 8%
- Survived Animals on Day 42 (L1210 tumor cells; 24 mg/Kg i.p. day 1 and day 4): 0/6
- Weight Changes (L1210 tumor cells; 24 mg/Kg i.p. day 1 and day 4): +0.6 g
- ILS (L1210 tumor cells; 40 mg/Kg i.p. day 1 and day 4): 22%
- Survived Animals on Day 42 (L1210 tumor cells; 40 mg/Kg i.p. day 1 and day 4): 0/6
- Weight Changes (L1210 tumor cells; 40 mg/Kg i.p. day 1 and day 4): -0.4 g
- ILS (L1210 tumor cells; 80 mg/Kg i.p. day 1 and day 4): 50%
- Survived Animals on Day 42 (L1210 tumor cells; 80 mg/Kg i.p. day 1 and day 4): 1/6
- Weight Changes (L1210 tumor cells; 80 mg/Kg i.p. day 1 and day 4): -1.2 g
- water solubility [1]: 17 mg/mL

Compound: cis-[trans-(1R, 2R)-diaminocyclohexane] Pt (II) (1-O-D-glucoside-propane-3-chloro-3,3-dicarboxylate) [Complex 2]
- IC50 [2]: 0.821 µM
- IC50 [3]: 22 µM
- IC50 (HT-29-human colon cancer): 1.88 µM
- IC50 [4]: 2 µM
- IC50 [5]: 10 µM
- IC50 [6]: 5.19 µM
- ILS (L1210 tumor cells; 50 mg/Kg i.p. day 1 and day 4): >425%
- Survived Animals on Day 42 (L1210 tumor cells; 50 mg/Kg i.p. day 1 and day 4): 6/6
- Weight Changes (L1210 tumor cells; 50 mg/Kg i.p. day 1 and day 4): +1.1 g
- ILS (L1210 tumor cells; 100 mg/Kg i.p. day 1 and day 4): >425%
- Survived Animals on Day 42 (L1210 tumor cells; 100 mg/Kg i.p. day 1 and day 4): 6/6
- Weight Changes (L1210 tumor cells; 100 mg/Kg i.p. day 1 and day 4): +0 g
- ILS (L1210 tumor cells; 200 mg/Kg i.p. day 1 and day 4): >425%
- Survived Animals on Day 42 (L1210 tumor cells; 200 mg/Kg i.p. day 1 and day 4): 6/6
- Weight Changes (L1210 tumor cells; 200 mg/Kg i.p. day 1 and day 4): -0.4 g

Compound: N.N.[Cl][Pt][Cl] [Cisplatin]
- ILS (L1210 tumor cells; [7]): 20%
- Survived Animals on Day 42 (L1210 tumor cells; [7]): 0/6
- ILS (L1210 tumor cells; 2.5 mg/Kg i.p. day 1 and day 4): 125%
- Survived Animals on Day 42 (L1210 tumor cells; 2.5 mg/Kg i.p. day 1 and day 4): 1/6
- ILS (L1210 tumor cells; 5.0 mg/Kg i.p. day 1 and day 4): 265%
- Survived Animals on Day 42 (L1210 tumor cells; 5.0 mg/Kg i.p. day 1 and day 4): 3/6
